Our source for the TGI values is PubChem BioAssay (NCI).

Some test systems named below: DU-145 prostate; HT29 colon; KM12 colon; OVCAR-3 ovarian; OVCAR-5 ovarian; SF-268 CNS; SF-295 CNS; SF-539 CNS; SK-MEL-5 melanoma; UO-31 renal.
Experiment in all cases: growth of human tumour cells (NCI), 48 h

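Cultured in 96-well plates, cells were exposed to test compound for 48 hours across five concentrations. TGI: concentration producing complete growth inhibition.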

For `Cc1ccc(C(=O)c2[nH]c(Nc3cc(C)ccn3)c(C(=S)Nc3ccccc3)c2N)cc1`, the TGI in the experiment with DU-145 prostate, in the experiment on HT29 colon, with KM12 colon, in the experiment with OVCAR-3 ovarian, in the experiment with OVCAR-5 ovarian and in the experiment with SF-268 CNS was above 100 µM each time. For the same molecule, the TGI in the experiment on SF-295 CNS, with SF-539 CNS, with SK-MEL-5 melanoma and in the experiment with UO-31 renal was above 100 µM in each case.

Take `CC1=CCC[C@H]2[C@](C)(CC3=CC(=O)C4SCCSC4C3=O)[C@@H](C)CC[C@]12C` (some centres not stated): the TGI with DU-145 prostate was 66.9 µM; in the experiment with KM12 colon it was above 100 µM; in the experiment with OVCAR-3 ovarian it was 48.4 µM; in the experiment on OVCAR-5 ovarian it was 37.5 µM; in the experiment with SF-295 CNS, 32.8 µM; in the experiment with SF-539 CNS, 40.3 µM. The figures for the TGI with SK-MEL-5 melanoma and with UO-31 renal were 26.7 µM and 40.1 µM, respectively.

On to `CCN(C(=O)N[C@H](C(=O)N[C@@H](C)C(=O)OC)C(C)C)c1ccccc1`, for which the TGI in the experiment with DU-145 prostate, with HT29 colon, with KM12 colon, with OVCAR-3 ovarian, in the experiment with OVCAR-5 ovarian and in the experiment with SF-268 CNS was above 100 µM throughout. In addition, the TGI with SF-295 CNS was above 100 µM; in the experiment on SF-539 CNS, 48.4 µM; in the experiment with SK-MEL-5 melanoma, above 100 µM; with UO-31 renal, above 100 µM.

On to `NC(=S)N=Nc1c(O)cc(Nc2ccc(Cl)cc2Cl)c2ccccc12`, for which the TGI was above 100 µM with DU-145 prostate; above 100 µM in the experiment on HT29 colon; above 100 µM with KM12 colon; 54.4 µM in the experiment on OVCAR-3 ovarian; above 100 µM in the experiment with OVCAR-5 ovarian; above 100 µM in the experiment on SF-268 CNS. The TGI with SF-295 CNS was 45.9 µM; with SF-539 CNS, 53.4 µM; in the experiment with SK-MEL-5 melanoma, 95.8 µM; in the experiment with UO-31 renal it was above 100 µM.

On to `C[C@@H]1C(=O)CC2(O)[C@@]13C[C@@H](OC(=O)[C@@H]3O)[C@@H](C)[C@@]21COC1=O` (some centres not stated), for which the TGI with DU-145 prostate, in the experiment with HT29 colon, in the experiment with KM12 colon, with OVCAR-3 ovarian, in the experiment with OVCAR-5 ovarian and with SF-268 CNS was above 100 µM each time. Also, the TGI in the experiment on SF-295 CNS, in the experiment with SF-539 CNS, with SK-MEL-5 melanoma and with UO-31 renal was above 100 µM throughout.

As to `CCOC(=O)Cc1nn2c(=O)cc(C)nc2s1`, the TGI in the experiment on DU-145 prostate, in the experiment with HT29 colon, in the experiment with KM12 colon, with OVCAR-3 ovarian, with OVCAR-5 ovarian and in the experiment with SF-268 CNS was above 100 µM in each case. Also, the TGI in the experiment with SF-295 CNS, in the experiment on SF-539 CNS, with SK-MEL-5 melanoma and with UO-31 renal was above 100 µM in each case.

As to `CC(C)(C)OC(=O)c1ccc(NCc2cc(O)ccc2O)cc1`, the TGI in the experiment on DU-145 prostate worked out at 43.3 µM; in the experiment on HT29 colon, 33.7 µM; with KM12 colon, 12.2 µM; with OVCAR-3 ovarian, 3.9 µM; with OVCAR-5 ovarian, 21.9 µM; with SF-268 CNS, 17.3 µM. Besides, the TGI worked out at 29.3 µM in the experiment on SF-295 CNS, 2.73 µM with SF-539 CNS, 13.1 µM in the experiment on SK-MEL-5 melanoma and 2.51 µM in the experiment on UO-31 renal.

Turning to `COC(=O)C1=C(C)N2[C@H](C(=O)O)CS[C@@]2(C)[C@H](C(=O)OC)[C@H]1c1cccc([N+](=O)[O-])c1`, the TGI in the experiment on DU-145 prostate, with HT29 colon, with KM12 colon, in the experiment with OVCAR-3 ovarian, in the experiment with OVCAR-5 ovarian and in the experiment with SF-268 CNS was above 100 µM in each case. Besides, the TGI in the experiment on SF-295 CNS, with SF-539 CNS, in the experiment on SK-MEL-5 melanoma and with UO-31 renal was above 100 µM throughout.

For the molecule `COc1ccc(N2C(=O)C3c4[nH]c5ccccc5c4C4C(C)CCCC4C3C2=O)cc1` (configuration not stated), the TGI in the experiment on DU-145 prostate, with HT29 colon, with KM12 colon, with OVCAR-3 ovarian, in the experiment with OVCAR-5 ovarian and in the experiment with SF-268 CNS was above 100 µM each time. Also, the TGI with SF-295 CNS is above 100 µM; in the experiment with SF-539 CNS it was above 82.8 µM; in the experiment with SK-MEL-5 melanoma, above 100 µM; in the experiment with UO-31 renal, above 100 µM.

In the case of `O=C(/C=C1\C[C@H]2C=Nc3ccccc3C(=O)N2C1)NCCCCCNC(=O)/C=C1\C[C@H]2C=Nc3ccccc3C(=O)N2C1`, the TGI came to 27.4 µM with DU-145 prostate; 27.4 µM with HT29 colon; 41 µM in the experiment with KM12 colon; 14.2 µM in the experiment on OVCAR-3 ovarian; 33.7 µM in the experiment on OVCAR-5 ovarian; 18.5 µM in the experiment on SF-268 CNS. For the same molecule, the TGI is 33 µM with SF-295 CNS, above 49.9 µM in the experiment with SF-539 CNS, above 51 µM with SK-MEL-5 melanoma and 3.8 µM in the experiment on UO-31 renal.

`O=C(CN=C(CN(c1ccccc1)c1ccccc1)Oc1c(Cl)cc(Cl)cc1Cl)n1cnc2ccccc21`: the TGI with DU-145 prostate, with HT29 colon, in the experiment with KM12 colon, in the experiment on OVCAR-3 ovarian, in the experiment with OVCAR-5 ovarian and with SF-268 CNS was above 100 µM throughout. Further, the TGI in the experiment with SF-295 CNS, in the experiment on SF-539 CNS and in the experiment on SK-MEL-5 melanoma was above 100 µM throughout.

Turning to `C/C(=N\Nc1nc2ccccc2s1)c1cccnn1`, the TGI with DU-145 prostate was above 100 µM; with HT29 colon, above 100 µM; with KM12 colon, above 100 µM; in the experiment on OVCAR-3 ovarian, above 100 µM; in the experiment on OVCAR-5 ovarian, above 100 µM; in the experiment on SF-268 CNS it was 20.1 µM. The TGI in the experiment with SF-295 CNS is 7.2 µM; with SF-539 CNS, 17.7 µM; with SK-MEL-5 melanoma it was above 100 µM; with UO-31 renal it was 71.2 µM.

For `CC(C)Cc1c(C#N)c(C#N)c(N)n1Cc1ccccc1`, the TGI in the experiment on DU-145 prostate, in the experiment with HT29 colon, in the experiment with KM12 colon, in the experiment on OVCAR-3 ovarian, in the experiment on OVCAR-5 ovarian and with SF-268 CNS was above 100 µM throughout. In addition, the TGI in the experiment with SF-295 CNS, with SF-539 CNS, in the experiment with SK-MEL-5 melanoma and with UO-31 renal was above 100 µM throughout.

In the case of `CNc1ccc2c(c1)Cc1ccccc1-2`, the TGI with DU-145 prostate is above 100 µM; in the experiment with HT29 colon it was above 100 µM; in the experiment with KM12 colon it was 99.5 µM; in the experiment on OVCAR-3 ovarian, 62.5 µM; in the experiment with OVCAR-5 ovarian, above 100 µM; with SF-268 CNS, above 100 µM. For the same molecule, the TGI in the experiment with SF-295 CNS is above 100 µM; with SF-539 CNS it was above 100 µM; in the experiment on SK-MEL-5 melanoma it was 74.7 µM; in the experiment with UO-31 renal, above 100 µM.
